The assay has as its system human fibroblasts. The assay can be described thus: Cell proliferation of fibroblasts. The class given is cell-based. As to conditions: Fibroblast, read-out: IC50 cell proliferation of fibroblasts. Here is the method:
Fibroblasts at 70-90% confluency are trypsinized, replated at 600 cells/well in media in 96-well plates and allowed to attachment overnight. […] Each drug concentration is tested in triplicate wells. Plates containing fibroblasts and drug substance are incubated at 37° C. for 72 hours.
To terminate the assay, the media is removed by gentle aspiration. A 1/400 dilution of CYQUANT 400×GR™ dye indicator (Molecular Probes; Eugene, Oreg.) is added to 1× Cell Lysis buffer, and 200 μL of the mixture is added to the wells of the plate. Plates are incubated at room temperature, protected from light for 3-5 minutes.

Structures can show the parent of a compound that is named as a salt. Where two headings read alike, the source gives them in different places.

`CN(C)[C@@H]1C(O)=C(C(N)=O)C(=O)[C@@]2(O)C(O)=C3C(=O)c4c(O)cccc4[C@@](C)(O)[C@H]3[C@H](O)[C@@H]12` [Oxytetracycline hydrochloride]: the IC50 (72 hours, CYQUANT) was in the range of 100 to 600 nM. Still for that read-out and setting: to `NCCC(O)(P(=O)(O)O)P(=O)(O)O` [Pamidronate disodium] belongs 100 to 600 nM. On the same count and under the same terms, under `OC1(c2ccc(Cl)c(C(F)(F)F)c2)CCN(CCCC(c2ccc(F)cc2)c2ccc(F)cc2)CC1` [Penfluridol] stands 600 to 1200 nM; under `N=C(N)c1ccc(OCCCCCOc2ccc(C(=N)N)cc2)cc1` [Pentamidine], 600 to 1200 nM; under `C1CCNCC1` [Piperidine], 1200 to 10000 nM. On the same count and under the same terms, to `O=C(CCBr)N1CCN(C(=O)CCBr)CC1` [Pipobroman, N,N-Bis(3-bromopropionyl)piperazine] belongs 1200 to 10000 nM; to `Cc1ccc(=O)n(-c2ccccc2)c1` [Pirfenidone], 10 to 100 nM. Take `O=C(O)C[C@H](O)C[C@H](O)/C=C/c1c(C2CC2)nc2ccccc2c1-c1ccc(F)cc1` [Pitavastatin]: the IC50 (72 hours, CYQUANT) was in the range of 100 to 600 nM. Take `CC[C@H](C)C(=O)O[C@H]1C[C@H](O)C=C2C=C[C@H](C)[C@H](CC[C@@H](O)C[C@@H](O)CC(=O)O)[C@H]21` [Pravastatin]: the IC50 (72 hours, CYQUANT) lay within 1200 to 10000 nM. Still for that read-out and setting: under `O=c1c(O)c(-c2ccc(O)c(O)c2)oc2cc(O)cc(O)c12` [Quercetin dihydrate] stands 100 to 600 nM; under `C#C[C@]1(O)CC[C@H]2[C@@H]3CCc4cc(OC5CCCC5)ccc4[C@H]3CC[C@@]21C` [Quinestrol, 17a-Ethynylestradiot 3-cyclopentyl ether], 1200 to 10000 nM; under `C[C@@H]1C[C@H]2O[C@@H]2/C=C\C=C\C(=O)Cc2c(Cl)c(O)cc(O)c2C(=O)O1` [Radicicol], 10 to 100 nM. On the same count and under the same terms, to `Cc1nc2ccc(CN(C)c3ccc(C(=O)N[C@@H](CCC(=O)O)C(=O)O)s3)cc2c(=O)[nH]1` [Raltitrexed] belongs 10 to 100 nM.

Turning to `COc1ccc(C2CNC(=O)C2)cc1OC1CCCC1` (stereo not shown) [Rolipram], the IC50 (72 hours, CYQUANT) lay within 100 to 600 nM. Still for that read-out and setting: under `CC(C)c1nc(N(C)S(C)(=O)=O)nc(-c2ccc(F)cc2)c1/C=C/[C@@H](O)C[C@@H](O)CC(=O)O` [Rosuvastatin] stands 1200 to 10000 nM; under `CC(=O)c1c(O)c(C)c(O)c(Cc2c(O)c3c(c(C(=O)/C=C/c4ccccc4)c2O)OC(C)(C)C=C3)c1O` [Rottlerin], 1200 to 10000 nM. On the same count and under the same terms, under `CC(=O)OCC(=O)NCCCOc1cccc(CN2CCCCC2)c1` [Roxatidine acetate] stands 600 to 1200 nM; under `Nc1nccc(-c2c(-c3ccc(F)cc3)ncn2C2CCNCC2)n1` [SB 220025], 1200 to 10000 nM. Still for that read-out and setting: to `COc1cccc(-c2ccc(NC(=O)C3=C(C(=O)O)CCC3)c(F)c2)c1` [SC12267] belongs 1200 to 10000 nM; to `Nc1nc2c(cnn2CCc2ccccc2)c2nc(-c3ccco3)nn12` [SCH-58261], 1200 to 10000 nM. Consider `CCCCCCCCCCCCCCC[C@H](O)[C@@H](N)CO` [Safingol, L-threo-Dihydrosphingosine], for which, under “72 hours, CYQUANT”, the IC50 fell in the range of 600 to 1200 nM. The same measure, in the same setting: under `O=C(/C=C/c1ccccc1)NC(NC(=S)Nc1cccc2cccnc12)C(Cl)(Cl)Cl` (stereo not shown) [Salubrinal] stands 1200 to 10000 nM. Still for that read-out and setting: to `CCCc1nn(C)c2c(=O)[nH]c(-c3cc(S(=O)(=O)N4CCN(C)CC4)ccc3OCC)nc12` [Sildenafil Citrate] belongs 1200 to 10000 nM. Still for that read-out and setting: to `NCCCCNCCCN` [Spermidine trihydrochloride] belongs 1200 to 10000 nM. Consider `NCCCNCCCCNCCCN` [Spermine tetrahydrochloride], for which the IC50 (72 h) lay in the range of 600 to 1200 nM. Take `Cc1ccnc(NS(=O)(=O)c2ccc(N)cc2)n1` [Sulfamerazine]: where the note is “72 hours, CYQUANT”, the IC50 is 1200 to 10000 nM. Still for that read-out and setting: to `COc1cc([C@@H]2c3cc4c(cc3[C@@H](O[C@@H]3O[C@@H]5CO[C@@H](c6cccs6)O[C@H]5[C@H](O)[C@H]3O)[C@H]3COC(=O)[C@H]23)OCO4)cc(OC)c1O` [Teniposide] belongs 10 to 100 nM; to `CN(C/C=C/C#CC(C)(C)C)Cc1cccc2ccccc12` [Terbinafine], 10 to 100 nM.

The values above are taken from US20090226500A1, “SUTURES AND ANTI-SCARRING AGENTS” (Angiotech Pharmaceuticals, Inc, priority 2006, published 2009).
